Results reported in US20250382301A1 (Arizona Board of Regents on Behalf of the University of …, priority 2022, published 2025).

Tested on: WNT signaling (TopGFP reporter in Human Colonic Epithelial Cells (HCEC))
Assay: WNT Reporter Assay (TopGFP reporter)
Assay type: cell-based
Conditions: stimulated with 10 μM CHIR99021, 24 hours, TopGFP/mCherry
Procedure: WNT Reporter Assay: Human Colonic Epithelial Cells (HCEC) were cultured using 1×DMEM supplemented with 1% penicillin/streptomycin, 1% Glutamax, and 10% fetal bovine serum in 5% CO2 at 37° C. These cells were previously engineered to express the TopGFP reporter (Addgene #24304) using second generation lentiviral techniques. For the Wnt reporter assay, cells were seeded at 2000 cells per well in a 384-well black screenstar imaging microplates (Greiner #781866) and allowed to adhere overnight. The following day cells were stimulated to induce the Wnt pathway using 10 μM CHIR99021 (Selleck #S1263). […] Cells were incubated for 24 hours before fixing for 30 minutes with 4% paraformaldehyde/sucrose solution. Cells were permeabilized with 0.1% triton-x in PBS for 10 minutes and stained for DAPI for 30 minutes. Plates were imaged on a Nikon Ti2 Eclipse fluorescent microscope for DAPI, GFP, and mCherry. Using Nikon Elements software for analysis, nuclei were segmented based on DAPI and mean object intensity per cell for both TopGFP and the internal control (mCherry) was measured. To calculate the amount of Wnt activity, we took the mean intensity of TopGFP and divided it by the mean intensity of mCherry per cell to normalize individual cells. Curves and EC50s were plotted and calculated using Graphpad Prism software.

| Compound | EC50 (Homo sapiens) [µM] | EC50 [µM] |
| --- | --- | --- |
| O=c1ccccn1C1CCN(c2ncnc3ccc(-c4cn[nH]c4)cc23)CC1 [Compound 59, 1-(1-(6-(1H-pyrazol-4-yl)quinazolin-4-yl)piperidin-4-yl)pyridin-2(1H)-one] | < 0.1 | – |
| Fc1cccnc1N1CCN(c2ncnc3ccc(-c4c[nH]c5ncccc45)cc23)CC1 [Compound 57, 4-(4-(3-fluoropyridin-2-yl)piperazin-1-yl)-6-(1H-pyrrolo[2,3-b]pyridin-3-yl)quinazoline] | < 0.1 | – |
| Fc1ccc(CN2CCCN(c3ncnc4ccc(-c5cn[nH]c5)cc34)CC2)cc1 [Compound 36, 4-(4-(4-fluorobenzyl)-1,4-diazepan-1-yl)-6-(1H-pyrazol-4-yl)quinazoline] | < 0.1 | – |
| c1ccc(N2CCN(c3ccnc4ccc(-c5cn[nH]c5)cc34)CC2)cc1 [Compound 26, 4-(4-phenylpiperazin-1-yl)-6-(1H-pyrazol-4-yl)quinoline] | < 0.1 | – |
| Nc1cc(-c2ccc3nccc(N4CCN(c5ccc(F)cc5)CC4)c3c2)ccn1 [Compound 30, 4-(4-(4-(4-fluorophenyl)piperazin-1-yl)quinolin-6-yl)pyridin-2-amine] | < 0.1 | – |
| COc1cc2c(cc1OC)CN(c1ncnc3ccc(-c4cnn(C)c4)cc13)CC2 [Compound 47, 4-(6,7-dimethoxy-3,4-dihydroisoquinolin-2(1H)-yl)-6-(1-methyl-1H-pyrazol-4-yl)quinazoline] | > 1 | – |
| CC(=O)N1CCN(c2ncnc3ccc(-c4ccnc(N)c4)cc23)CC1 [Compound 1, 1-(4-(6-(2-aminopyridin-4-yl)quinazolin-4-yl)piperazin-1-yl)ethan-1-one] | 0.1 to 1 | – |
| COc1cc2c(cc1OC)CN(c1ncnc3ccc(-c4ccnc(N)c4)cc13)CC2 [Compound 35, 4-(4-(6,7-dimethoxy-3,4-dihydroisoquinolin-2(1H)-yl)quinazolin-6-yl)pyridin-2-amine] | 0.1 to 1 | – |
| 6-(1H-pyrazol-3-yl)-4-(4-(pyridin-2-yl)piperazin-1-yl)pyrido[3,2-d]pyrimidine [Compound 18] | – | < 0.1 |
| Nc1cc(-c2ccc3ncnc(N4C[C@H]5CN(c6ccccn6)C[C@H]5C4)c3c2)ccn1 [Compound 66, 4-(4-((3aR,6aS)-5-(pyridin-2-yl)hexahydropyrrolo[3,4-c]pyrrol-2(1H)-yl)quinazolin-6-yl)pyridin-2-amine] | 0.1 to 1 | – |
| 6-(1H-pyrazol-3-yl)-4-(4-(5-(trifluoromethyl)pyridin-2-yl)piperazin-1-yl)pyrido[3,2-d]pyrimidine [Compound 22] | – | < 0.1 |
| 4-(4-(2-fluorophenyl)piperazin-1-yl)-6-(1-methyl-1H-pyrazol-3-yl)pyrido[3,2-d]pyrimidine [Compound 20] | – | > 1 |
| Nc1cc(-c2ccc3ncnc(N4CCN(c5ccncc5)CC4)c3c2)ccn1 [Compound 6, 4-(4-(4-(pyridin-4-yl)piperazin-1-yl)quinazolin-6-yl)pyridin-2-amine] | 0.1 to 1 | – |
| Nc1cc(-c2ccc3ncnc(N4CCN(c5ccc(O)cc5)CC4)c3n2)ccn1 [Compound 28, 4-(4-(6-(2-aminopyridin-4-yl)pyrido[3,2-d]pyrimidin-4-yl)piperazin-1-yl)phenol] | < 0.1 | – |
| O=C1CN(c2ncnc3ccc(-c4cn[nH]c4)cc23)CCN1c1ccccc1 [Compound 32, 4-(6-(1H-pyrazol-4-yl)quinazolin-4-yl)-1-phenylpiperazin-2-one] | < 0.1 | – |
| Cc1ccc(N2CCN(c3ccnc4ccc(-c5ccnc(N)c5)cc34)CC2)c(C)c1 [Compound 34, 4-(4-(4-(2,4-dimethylphenyl)piperazin-1-yl)quinolin-6-yl)pyridin-2-amine] | 0.1 to 1 | – |

| Compound | EC50 (Homo sapiens) [µM] | EC50 [µM] |
| --- | --- | --- |
| Nc1cc(-c2ccc3ncnc(N4CCN(c5ccc(F)cc5)CC4)c3n2)ccn1 [Compound 24, 4-(4-(4-(4-fluorophenyl)piperazin-1-yl)pyrido[3,2-d]pyrimidin-6-yl)pyridin-2-amine] | < 0.1 | – |
| Nc1cc(-c2ccc3ncnc(N4CCN(c5ccccc5F)C(=O)C4)c3n2)ccn1 [Compound 67, 4-(6-(2-aminopyridin-4-yl)pyrido[3,2-d]pyrimidin-4-yl)-1-(2-fluorophenyl)piperazin-2-one] | < 0.1 | – |
| FC(F)c1cc(-c2ccc3ncnc(N4CCN(c5ccccn5)CC4)c3c2)ccn1 [Compound 8, 6-(2-(difluoromethyl)pyridin-4-yl)-4-(4-(pyridin-2-yl)piperazin-1-yl)quinazoline] | 0.1 to 1 | – |
| Nc1cc(-c2ccc3ncnc(N4CCCN(Cc5ccc(F)cc5)CC4)c3c2)ccn1 [Compound 41, 4-(4-(4-(4-fluorobenzyl)-1,4-diazepan-1-yl)quinazolin-6-yl)pyridin-2-amine] | 0.1 to 1 | – |
| Nc1cc(-c2ccc3ncnc(N4CCN(c5ccccc5F)CC4)c3n2)ccn1 [Compound 19, 4-(4-(4-(2-fluorophenyl)piperazin-1-yl)pyrido[3,2-d]pyrimidin-6-yl)pyridin-2-amine] | < 0.1 | – |
| Nc1cc(-c2ccc3ncnc(N4CCN(c5ccccn5)CC4)c3n2)ccn1 [Compound 5, 4-(4-(4-(pyridin-2-yl)piperazin-1-yl)pyrido[3,2-d]pyrimidin-6-yl)pyridin-2-amine] | < 0.1 | – |
| Cn1cc(-c2ccc3ncnc(N4CCN(c5ccccn5)CC4)c3c2)cn1 [Compound 7, 6-(1-methyl-1H-pyrazol-4-yl)-4-(4-(pyridin-2-yl)piperazin-1-yl)quinazoline] | 0.1 to 1 | – |
| Nc1cc(-c2ccc3nccc(N4CCN(c5ccccc5F)CC4)c3c2)ccn1 [Compound 33, 4-(4-(4-(2-fluorophenyl)piperazin-1-yl)quinolin-6-yl)pyridin-2-amine] | 0.1 to 1 | – |
| Nc1cc(-c2ccc3ncnc(N4CCN(c5ccc(F)cc5F)CC4)c3c2)ccn1 [Compound 39, 4-(4-(4-(2,4-difluorophenyl)piperazin-1-yl)quinazolin-6-yl)pyridin-2-amine] | 0.1 to 1 | – |
| Nc1cc(-c2ccc3ncnc(N4CCC(c5ccc(F)cc5F)CC4)c3c2)ccn1 [Compound 63, 4-(4-(4-(2,4-difluorophenyl)piperidin-1-yl)quinazolin-6-yl)pyridin-2-amine] | 0.1 to 1 | – |
| O=c1ccccn1C1CCN(c2ncnc3ccc(-c4c[nH]c5ncccc45)cc23)CC1 [Compound 58, 1-(1-(6-(1H-pyrrolo[2,3-b]pyridin-3-yl)quinazolin-4-yl)piperidin-4-yl)pyridin-2(1H)-one] | < 0.1 | – |
| Nc1cc(-c2ccc3ncnc(N4CCN(c5ccccc5)C(=O)C4)c3c2)ccn1 [Compound 38, 4-(6-(2-aminopyridin-4-yl)quinazolin-4-yl)-1-phenylpiperazin-2-one] | 0.1 to 1 | – |
| Fc1cc(-c2ccc3ncnc(N4CCN(c5ccccn5)CC4)c3c2)ccn1 [Compound 13, 6-(2-fluoropyridin-4-yl)-4-(4-(pyridin-2-yl)piperazin-1-yl)quinazoline] | > 1 | – |
| c1ccc(N2CCN(c3ncnc4ccc(-c5cn[nH]c5)cc34)CC2)nc1 [Compound 14, 6-(1H-pyrazol-4-yl)-4-(4-(pyridin-2-yl)piperazin-1-yl)quinazoline] | < 0.1 | – |
| Cc1cc(-c2ccc3ncnc(N4CCN(c5ccccn5)CC4)c3c2)ccn1 [Compound 12, 6-(2-methylpyridin-4-yl)-4-(4-(pyridin-2-yl)piperazin-1-yl)quinazoline] | > 1 | – |

Further lines, results first:

| EC50 (Homo sapiens) [µM] | EC50 [µM] | Compound |
| --- | --- | --- |
| 0.1 to 1 | – | C[C@@H]1CN(c2ccccn2)CCN1c1ncnc2ccc(-c3ccnc(N)c3)cc12 [Compound 44, (R)-4-(4-(2-methyl-4-(pyridin-2-yl)piperazin-1-yl)quinazolin-6-yl)pyridin-2-amine] |
| – | < 0.1 | 4-(4-(2-fluorophenyl)piperazin-1-yl)-6-(1H-pyrazol-3-yl)pyrido[3,2-d]pyrimidine [Compound 23] |
| < 0.1 | – | Nc1cc(-c2ccc3ncnc(N4CCN(c5nccs5)CC4)c3c2)ccn1 [Compound 50, 4-(4-(4-(thiazol-2-yl)piperazin-1-yl)quinazolin-6-yl)pyridin-2-amine] |
| < 0.1 | – | Nc1cc(-c2ccc3nccc(N4CCN(c5ccccc5)CC4)c3n2)ccn1 [Compound 53, 4-(8-(4-phenylpiperazin-1-yl)-1,5-naphthyridin-2-yl)pyridin-2-amine] |
| > 1 | – | Cn1cc(-c2ccc3ncnc(N4CCN(Cc5ccc(F)cc5)CC4)c3c2)cn1 [Compound 42, 4-(4-(4-fluorobenzyl)piperazin-1-yl)-6-(1-methyl-1H-pyrazol-4-yl)quinazoline] |
| 0.1 to 1 | – | Nc1cc(-c2ccc3ncnc(N4CCN(c5ncccn5)CC4)c3c2)ccn1 [Compound 10, 4-(4-(4-(pyrimidin-2-yl)piperazin-1-yl)quinazolin-6-yl)pyridin-2-amine] |
| < 0.1 | – | Nc1cc(-c2ccc3nccc(N4CCN(c5ccccc5F)CC4)c3n2)ccn1 [Compound 52, 4-(8-(4-(2-fluorophenyl)piperazin-1-yl)-1,5-naphthyridin-2-yl)pyridin-2-amine] |
| 0.1 to 1 | – | Nc1cc(-c2ccc3ncnc(N4CCC(c5ccccc5F)CC4)c3c2)ccn1 [Compound 48, 4-(4-(4-(2-fluorophenyl)piperidin-1-yl)quinazolin-6-yl)pyridin-2-amine] |
| > 1 | – | Cc1n[nH]cc1-c1ccc2ncnc(N3CCN(c4ccccn4)CC3)c2c1 [Compound 60, 6-(3-methyl-1H-pyrazol-4-yl)-4-(4-(pyridin-2-yl)piperazin-1-yl)quinazoline] |
| 0.1 to 1 | – | Nc1cc(-c2ccc3ncnc(N4CCN(c5ccc(F)cc5)CC4)c3c2)ccn1 [Compound 31, 4-(4-(4-(4-fluorophenyl)piperazin-1-yl)quinazolin-6-yl)pyridin-2-amine] |
| 0.1 to 1 | – | Nc1cc(-c2ccc3ncnc(N4CCN(c5ccccc5F)CC4)c3c2)ccn1 [Compound 15, 4-(4-(4-(2-fluorophenyl)piperazin-1-yl)quinazolin-6-yl)pyridin-2-amine] |
| < 0.1 | – | Nc1cc(-c2ccc3ncnc(N4CCN(c5ncccc5F)CC4)c3c2)ccn1 [Compound 61, 4-(4-(4-(3-fluoropyridin-2-yl)piperazin-1-yl)quinazolin-6-yl)pyridin-2-amine] |
| 0.1 to 1 | – | Nc1cc(-c2ccc3ncnc(N4CCC(n5ccccc5=O)CC4)c3c2)ccn1 [Compound 62, 1-(1-(6-(2-aminopyridin-4-yl)quinazolin-4-yl)piperidin-4-yl)pyridin-2(1H)-one] |
